Set-up in all cases: species or system human
One experiment relates to R1.2 (HCT116-RDAC). Description: MTT based cell survival assay, DAC resistant HCT116 clone R1.2. As to the method: (§1) The DAC resistant HCT116 cell lines were developed using two methods.
(§2) The method is primarily based on reduction of yellow colored tetrazolium salt, 3-(4,5-dimethylthiazol-2-yl)-2,5-diphenyltetrazolium bromide (MTT) to insoluble purple colored formazan crystals by NAD(P)H-dependent oxidoreductase enzymes in mitochondria of the viable cell.
(§3) Cells in 80 μL of medium were plated in each of the experimental and the control wells, followed by addition of 20 μL medium with five-fold drug concentration to experimental wells. The wells with medium alone were included alongside as blank for absorbance readings. After 72 h of drug treatment, 10 μL MTT (Sigma-Aldrich) prepared in 1×PBS (5 mg/mL) was added to all wells including blank and control, and incubated until the purple formazan crystals were visible after which 100 μL of detergent (10% SDS, pH: 5.5) was added and the plates were incubated overnight to solubilize the formazan and the cellular material.
(§4) Cross resistance was determined as the fold increase, whereas, the sensitivity was determined as the fold decrease in the IC50 of the drugs for the resistant cell lines compared to their genetically identical drug sensitive counterpart.

A further experiment relates to R1.1 (HCT116-RDAC). In words: MTT based cell survival assay, DAC resistant HCT116 clone R1.1. How it is done:
as §1, §2, §3, §4

The test system of the next experiment is R1.4 (HCT116-RDAC). Description: MTT based cell survival assay, DAC resistant HCT116 clone R1.4. As to the method:
as §1, §2, §3, §4

In another experiment the test system is R1.3 (HCT116-RDAC). Description: MTT based cell survival assay, DAC resistant HCT116 clone R1.3. As to the method: as §1, §2, §3, §4
A further experiment concerns R2.1 (HCT116-RDAC). In words: MTT based cell survival assay, DAC resistant HCT116 clone R2.1. As to the method:
as §1, §2, §3, §4

The test system of a further experiment is HCT116. Description: MTT based cell survival assay, parental HCT116. The following applies: Homo sapiens, HCT-116; HCT116 parental, MTT, 72 h drug treatment; read-out: Mean IC50. How it is done: To study the mechanism of resistance towards DNA methylation inhibitor, 2′-deoxy-5-azacytidine, we used the human colorectal cancer cell line (HCT116), human promyelocytic leukemia cells (HL-60), and human breast adenocarcinoma cell line (MCF-7) obtained from American Type Culture Collection (Manassas, Va.). The cell lines were cultured in complete growth media (Sigma-Aldrich, St. Louis, Mo.), supplemented with fetal bovine serum (FBS, PAN-Biotech GmbH, Aidenbach, Germany), 100 U/mL penicillin (Biotika, Slovenská L'upča, Slovak Republic) and 50 μg/mL streptomycin (Sigma-Aldrich), and the cultures were maintained at 37° C. and 5% CO2, in a humidified incubator. The cell line, HCT116 was grown in McCoy's 5 A medium supplemented with 10% FBS and 3 mM L-glutamine (Sigma-Aldrich), HL-60 was grown in Iscove's Modified Dulbecco's Medium with 20% FBS, and MCF-7 was grown in RPMI-1640 medium with 10% FBS.
The method is primarily based on reduction of yellow colored tetrazolium salt, 3-(4,5-dimethylthiazol-2-yl)-2,5-diphenyltetrazolium bromide (MTT) to insoluble purple colored formazan crystals by NAD(P)H-dependent oxidoreductase enzymes in mitochondria of the viable cell. The intensity of the purple color produced on solubilization of the formazan crystals is directly proportional to the number of viable cells (Meerloo J. V. et al., Methods in Molecular Biology 2011; 731, 237-45).
as §3, with “To determine the IC50 of the epigenetic drugs (Tocris Bioscience, Bristol, United Kingdom), four independent experiments were performed using triplicate wells of 96 well plates. Cells” for “Cells”, “[…],” for “After 72 h of drug treatment,”
as §4

The test system of a further experiment is R2.2 (HCT116-RDAC). In words: MTT based cell survival assay, DAC resistant HCT116 clone R2.2. As to the method:
as §1, §2, §3, §4

In the case of `COc1cc2nc(N3CCCN(C)CC3)nc(NC3CCN(Cc4ccccc4)CC3)c2cc1OC` [BIX-01294], the half-inhibitory concentration (IC50) was found to be 3.02 µM in the experiment with R1.2 (HCT116-RDAC) (Homo sapiens, HCT-116, R1.2, MTT, 72 h drug treatment, read-out: Mean IC50); 3 µM in the experiment on R1.1 (HCT116-RDAC) (Homo sapiens, HCT-116, R1.1, MTT, 72 h drug treatment, read-out: Mean IC50); 3.05 µM in the experiment on R1.4 (HCT116-RDAC) (Homo sapiens, HCT-116, R1.4, MTT, 72 h drug treatment, read-out: Mean IC50); 2.97 µM in the experiment on R1.3 (HCT116-RDAC) (Homo sapiens, HCT-116, R1.3, MTT, 72 h drug treatment, read-out: Mean IC50); 3.4 µM with R2.1 (HCT116-RDAC) (Homo sapiens, HCT-116, R2.1, MTT, 72 h drug treatment); 2.55 µM in the experiment with HCT116. The IC50 in the experiment with R2.2 (HCT116-RDAC) (Homo sapiens, HCT-116, R2.2, MTT, 72 h drug treatment, read-out: Mean IC50) is 3.22 µM. Also, the “fold change (resistance index)” value was “(1.19) fold” with R1.2 (HCT116-RDAC) (IC50 R1.2 / IC50 HCT116); “(1.17) fold” in the experiment on R1.1 (HCT116-RDAC) (IC50 R1.1 / IC50 HCT116); “(1.20) fold” in the experiment on R1.4 (HCT116-RDAC) (IC50 R1.4 / IC50 HCT116); “(1.16) fold” in the experiment on R1.3 (HCT116-RDAC) (IC50 R1.3 / IC50 HCT116); “(1.33) fold” in the experiment on R2.1 (HCT116-RDAC) (IC50 R2.1 / IC50 HCT116); “(1.26) fold” with R2.2 (HCT116-RDAC) (IC50 R2.2 / IC50 HCT116).

What is called IC50 is the concentration that gives 50% inhibition.

(Values after US20180251847A1, “METHOD OF PREDICTING THE TUMOR RESPONSE TO DNA METHYLATION INHIBITORS AND ALTERNATIVE THERAPEUTIC REGIMEN FOR OVERCOMING RESISTANCE” (PALACKY UNIVERSITY, OLOMOUC, priority 2014, published 2018).)
